Data set [1] is described as follows: (§1) Half-life period was determined after 1 mg/kg (i.v.) / 2 mg/kg (p.o.) of compound administration. It is filed as ADME, organism-based. Particulars: rat, in vivo.
Data set [2] in a line: (§2) Maximum plasma concentration reached by compound was determined after 2 mg/kg (p.o.) administration. Type of data set: ADME, organism-based, Canis lupus familiaris. Further details: dose 2 mg/kg, route oral. Particulars: dog, po.
A short description of data set [3]: (§3) Volume of distribution at steady state was determined after 1 mg/kg (i.v.) / 2 mg/kg (p.o.) of compound administration. Type of data set: ADME, organism-based, Canis lupus familiaris. Particulars: dog, in vivo, iv, read-out: Vdss.
Data set [4] in a line: (§4) Plasma clearance was determined after 1 mg/kg (i.v.) / 2 mg/kg (p.o.) of compound administration. Type of data set: ADME, organism-based. The note with it: rat, iv, read-out: Clp.
Data set [5] in a line: as §1. It is filed as ADME, organism-based, Canis lupus familiaris. The note with it: dog, in vivo.
A short description of data set [6]: as §4. It is filed as ADME, organism-based, Canis lupus familiaris. The note with it: dog, iv, read-out: Clp.
The nature of data set [7]: as §3. Type of data set: ADME, organism-based. The note with it: rat, in vivo, iv, read-out: Vdss.
Data set [8] is described as follows: as §2. Type of data set: ADME, organism-based. The note with it: rat, po. Also on record: dose 2 mg/kg, route oral.

As for `N[C@H](C(=O)N1CC[C@H](F)C1)[C@H]1CC[C@H](NS(=O)(=O)c2ccc(F)cc2F)CC1`, the values for the half-life in data set [1] and in data set [5] were 1.6 h and 5.9 h, respectively. The Cmax in data set [2] was 1000 nM; in data set [8], 400 nM. In addition, the Vd in data set [3] was 4.4 L/kg; in data set [7], 2.5 L/kg. Moreover, the clearance in data set [4] turned out to be 24 mL/min/kg; in data set [6], 9.1 mL/min/kg.

For the origin of these results see ChEMBL document CHEMBL1147603, “Fluoropyrrolidine amides as dipeptidyl peptidase IV inhibitors” (Bioorg Med Chem Lett, 2004).
